Like-named read-outs stand apart in the source and are kept apart here.
Key:
[1] = target: isolated recombinant JAK1 kinase domain (Homo sapiens (Human), UniProt P23458); assay: JAK1 enzyme assay (Caliper LabChip, Ki); format: biochemical
Summary of the method: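 Recombinant human JAK1 kinase domain phosphorylating an N-terminally 5-carboxyfluorescein-labelled JAK3-derived peptide, 30 min at 22 °C, stopped with EDTA (50 mM final). Phosphorylated fraction of total peptide read by Caliper LabChip mobility shift; Ki from Morrison tight-binding fit corrected for ATP competition (Ki=Ki,app/(1+[ATP]/Km,app)).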

[2] = target: isolated recombinant JAK2 kinase domain (Homo sapiens (Human), UniProt O60674); assay: JAK2 enzyme assay (Caliper LabChip, Ki); format: biochemical
Sequence of isolated recombinant JAK2 kinase domain (O60674 849-1124): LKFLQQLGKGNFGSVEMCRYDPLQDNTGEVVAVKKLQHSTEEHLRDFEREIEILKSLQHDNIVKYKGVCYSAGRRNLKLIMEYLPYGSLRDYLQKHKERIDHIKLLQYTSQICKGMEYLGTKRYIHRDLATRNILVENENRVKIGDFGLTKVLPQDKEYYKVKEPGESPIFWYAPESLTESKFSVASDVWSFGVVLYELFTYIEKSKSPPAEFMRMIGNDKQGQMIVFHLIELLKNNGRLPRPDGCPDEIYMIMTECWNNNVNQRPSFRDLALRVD
Summary of the method: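 Recombinant human JAK1 or JAK2 kinase domain phosphorylating a 5-carboxyfluorescein-labelled JAK3-derived peptide; 30 min at 22 °C, stopped with EDTA (50 mM final). Phosphorylated product measured as a fraction of total peptide by Caliper LabChip mobility shift.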

[3] = system: JAK1-dependent STAT6 phosphorylation downstream of IL-13 stimulation in BEAS-2B human bronchial epithelial cells; assay: JAK1 pathway assay in BEAS-2B cells (IL-13-pSTAT6, MSD); format: cell-based
Experimental: JAK1 Pathway Assay in Cell Lines was carried out as follows:
Inhibitor potency (EC50) was determined in cell-based assays designed to measure JAK1 dependent STAT phosphorylation.
In one assay approach, TF-1 human erythroleukemia cells obtained from the American Type Culture Collection (ATCC; Manassas, Va.) were used to measure JAK1-dependent STAT6 phosphorylation downstream of IL-13 stimulation. Prior to use in the assays, TF-1 cells were starved of GM-CSF overnight in OptiMEM medium (Life Technologies, Grand Island, N.Y.) supplemented with 0.5% charcoal/dextran stripped fetal bovine serum (FBS), 0.1 mM non-essential amino acids (NEAA), and 1 mM sodium pyruvate. The assays were run in 384-well plates in serum-free OptiMEM medium using 300,000 cells per well. In a second assay approach, BEAS-2B human bronchial epithelial cells obtained from ATCC were plated at 100,000 cells per well of a 96-well plate one day prior to the experiment. The BEAS-2B assay was run in complete growth medium (bronchial epithelial basal medium plus bulletkit; Lonza; Basel, Switzerland).
Test compounds were serially diluted 1:2 in DMSO and then diluted 1:50 in medium just before use. Diluted compounds were added to the cells, for a final DMSO concentration of 0.2%, and incubated for 30 min (for the TF-1 assay) or 1 hr (for the BEAS-2B assay) at 37° C. Then, cells were stimulated with human recombinant cytokine at their respective EC90 concentrations, as previously determined for each individual lot. Cells were stimulated with IL-13 (R&D Systems, Minneapolis, Minn.) for 15 min at 37° C. The TF-1 cell reactions were stopped by the direct addition of 10× lysis buffer (Cell Signaling Technologies, Danvers, Mass.), whereas the BEAS-2B cell incubations were halted by the removal of medium and addition of 1× lysis buffer. The resultant samples were frozen in the plates at −80° C. Compound mediated inhibition of STATE phosphorylation was measured in the cell lysates using MesoScale Discovery (MSD) technology (Gaithersburg, Md.).

[4] = Homo sapiens, BEAS-2B, BEAS-2B cells, IL-13 stimulation, read-out: IL-13 p-STAT6 BEAS-2B IC50

Sequence of isolated recombinant JAK1 kinase domain (P23458 875-1153): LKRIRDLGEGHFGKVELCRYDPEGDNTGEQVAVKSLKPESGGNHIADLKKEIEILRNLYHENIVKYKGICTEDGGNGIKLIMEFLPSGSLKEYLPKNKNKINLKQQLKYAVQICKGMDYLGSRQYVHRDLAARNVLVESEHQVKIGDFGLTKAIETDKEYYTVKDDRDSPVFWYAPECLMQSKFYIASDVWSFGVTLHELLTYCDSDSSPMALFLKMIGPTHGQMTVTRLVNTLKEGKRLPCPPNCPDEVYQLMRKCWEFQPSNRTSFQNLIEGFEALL

Row | SMILES | Ki ([1]; read-out: JAK1 Ki) | Ki [2] | IC50 ([3]; BEAS-2B cells, IL-13 stimulation, read-out: IL-13 p-STAT6 BEAS-2B IC50) | IC50 [3, 4] | Ki [1] | IC50 ([3]; Homo sapiens, BEAS-2B, read-out: IL-13 p-STAT6 BEAS-2B IC50, BEAS-2B cells, IL-13 stimulation)
1 | N#CCC1(n2cc(C(N)=O)c(NC(=O)C3CC3)n2)CCC(Oc2ccc(-c3ccccc3)cc2)CC1 (single isomer, unassigned) [Example 210, 1-(4-([1,1′-Biphenyl]-4-yloxy)-1-(cyanomethyl)cyclohexyl)-3-(cyclopropanecarboxamido)-1H-pyrazole-4-carboxamide] | 2.1 nM | 5.1 nM | 75 nM | – | – | –
2 | N#CCC1(n2cc(C(N)=O)c(NC(=O)C3CC3)n2)CCN(Cc2ccc(-c3ccc(Cl)cc3)cc2)CC1 [Example 147, 1-[1-[[4-(4-chlorophenyl)phenyl]methyl]-4-(cyanomethyl)-4-piperidyl]-3-(cyclopropanecarbonylamino) pyrazole-4-carboxamide] | 2.1 nM | 32 nM | – | 51 nM | – | –
3 | N#CC[C@]1(n2cc(C(N)=O)c(NC(=O)C3CC3)n2)CC[C@@H](NCc2ccc(-c3ccccc3)cc2)CC1 [Example 128] | – | 46.4 nM | – | – | 4.6 nM | 349 nM
4 | N#CCC1(n2cc(C(N)=O)c(NC(=O)C3CC3)n2)CCN(Cc2cc(O)c(-c3ccccc3)cc2F)CC1 [Example 191, 1-[4-(cyanomethyl)-1-[(2-fluoro-5-hydroxy-4-phenyl-phenyl)methyl]-4-piperidyl]-3-(cyclopropanecarbonylamino) pyrazole-4-carboxamide] | 0.2 nM | 0.32 nM | – | 82 nM | – | –
5 | N#CCC1(n2cc(C(N)=O)c(NC(=O)C3CC3)n2)CCN(Cc2ccc3c(c2)[nH]c2ccccc23)CC1 [Example 95] | 1.2 nM | 6.3 nM | – | 275 nM | – | –
6 | N#CC[C@]1(n2cc(C(N)=O)c(NC(=O)C3CC3)n2)CC[C@H](NCC(F)(F)F)CC1 (single isomer, unassigned) [Example 2] | – | 6.1 nM | – | 373 nM | 1.2 nM | –
7 | CN(C)C(=O)c1cccc(-c2ccc(CN3CCC(CC#N)(n4cc(C(N)=O)c(NC(=O)C5CC5)n4)CC3)cc2)c1 [Example 145, 1-[4-(cyanomethyl)-1-[[4-[3-(dimethylcarbamoyl)phenyl]phenyl]methyl]-4-piperidyl]-3-(cyclopropanecarbonylamino) pyrazole-4-carboxamide] | 3.1 nM | 15.5 nM | – | > 1000 nM | – | –
8 | N#CCC1(n2cc(C(N)=O)c(NC(=O)C3CC3)n2)CCN(Cc2ccc(-c3ccccc3)c(Cl)c2)CC1 [Example 163, 1-[1-[(3-chloro-4-phenyl-phenyl)methyl]-4-(cyanomethyl)-4-piperidyl]-3-(cyclopropanecarbonylamino) pyrazole-4-carboxamide] | 2.1 nM | 18.5 nM | – | 103 nM | – | –
9 | COC(=O)Nc1nn(C2(CC#N)CCN(Cc3ccc(-c4ccco4)cc3)CC2F)cc1C(N)=O (stereo not drawn) [Example 220, methyl N-[4-carbamoyl-1-[4-(cyanomethyl)-3-fluoro-1-[[4-(2-furyl)phenyl]methyl]-4-piperidyl]pyrazol-3-yl]carbamate] | 0.27 nM | 0.44 nM | – | 15 nM | – | –
10 | Cc1ccc(OC2(C)CN([C@H]3CC[C@](CC#N)(n4cc(C(N)=O)c(NC(=O)C5CC5)n4)CC3)C2)cc1 [Example 300, 1-[1-(cyanomethyl)-4-[3-methyl-3-(4-methylphenoxy)azetidin-1-yl]cyclohexyl]-3-(cyclopropanecarbonylamino) pyrazole-4-carboxamide] | 1.5 nM | 1.3 nM | – | 43 nM | – | –
11 | COC(=O)Nc1nn(C2(CC#N)CCN(Cc3ccc(-c4ccc(C)o4)c(O)c3)CC2F)cc1C(N)=O (stereo not drawn) [Example 247, methyl N-[4-carbamoyl-1-[4-(cyanomethyl)-3-fluoro-1-[[3-hydroxy-4-(5-methyl-2-furyl)phenyl]methyl]-4-piperidyl]pyrazol-3-yl]carbamate] | 0.35 nM | 0.43 nM | – | 26 nM | – | –
12 | CCn1ccc(-c2ccc(CN3CCC(CC#N)(n4cc(C(N)=O)c(NC(=O)OC)n4)C(F)C3)c(F)c2)n1 (stereo not drawn) [Example 241, methyl N-[4-carbamoyl-1-[4-(cyanomethyl)-1-[[4-(1-ethylpyrazol-3-yl)-2-fluoro-phenyl]methyl]-3-fluoro-4-piperidyl]pyrazol-3-yl]carbamate] | 0.54 nM | 0.51 nM | – | 29 nM | – | –
13 | N#CCC1(n2cc(C(N)=O)c(NC(=O)C3CC3)n2)CCN(Cc2ccc(-c3ccccc3)c(F)c2)CC1 [Example 140, 1-[4-(cyanomethyl)-1-[(3-fluoro-4-phenyl-phenyl)methyl]-4-piperidyl]-3-(cyclopropanecarbonylamino) pyrazole-4-carboxamide] | 0.6 nM | 4.4 nM | – | 49 nM | – | –
14 | N#CCC1(n2cc(C(N)=O)c(NC(=O)C3CC3)n2)CCN(Cc2ccc(-c3cccc(CO)c3)cc2)CC1 [Example 156, 1-[4-(cyanomethyl)-1-[[4-[3-(hydroxymethyl)phenyl]phenyl]methyl]-4-piperidyl]-3-(cyclopropanecarbonylamino) pyrazole-4-carboxamide] | 0.6 nM | 4.3 nM | – | 209 nM | – | –
15 | COC(=O)Nc1nn(C2(CC#N)CCN(Cc3ccc(-n4ncc(C)n4)cc3)CC2F)cc1C(N)=O (stereo not drawn) [Example 267, methyl N-[4-carbamoyl-1-[4-(cyanomethyl)-3-fluoro-1-[[4-(4-methyltriazol-2-yl)phenyl]methyl]-4-piperidyl]pyrazol-3-yl]carbamate] | 0.86 nM | 0.84 nM | – | 51 nM | – | –
16 | CS(=O)(=O)Nc1cccc(CN2CCC(CC#N)(n3cc(C(N)=O)c(NC(=O)C4CC4)n3)CC2)c1F [Example 78] | 2.9 nM | 4.9 nM | – | > 1000 nM | – | –
17 | C#Cc1ccc(OC2(C)CN(C3CCC(CC#N)(n4cc(C(N)=O)c(NC(=O)C5CC5)n4)CC3)C2)cc1 (stereo not drawn) [Example 294, 1-(1-(Cyanomethyl)-4-(3-(4-ethynylphenoxy)-3-methylazetidin-1-yl)cyclohexyl)-3-(cyclopropanecarboxamido)-1H-pyrazole-4-carboxamide] | 0.74 nM | 1.1 nM | – | 47 nM | – | –
18 | Cc1c(CN2CCC(CC#N)(n3cc(C(N)=O)c(NC(=O)C4CC4)n3)CC2)ccc(-c2ccccc2)c1O [Example 194, 1-[4-(cyanomethyl)-1-[(3-hydroxy-2-methyl-4-phenyl-phenyl)methyl]-4-piperidyl]-3-(cyclopropanecarbonylamino) pyrazole-4-carboxamide] | 0.63 nM | 2.2 nM | – | 50 nM | – | –
19 | COC(=O)Nc1nn(C2(CC#N)CCC(Nc3ccc(-c4ccco4)cc3)CC2)cc1C(N)=O (stereo not drawn) [Example 266, methyl N-[4-carbamoyl-1-[1-(cyanomethyl)-4-[4-(2-furyl)anilino]cyclohexyl]pyrazol-3-yl]carbamate] | 0.77 nM | 5 nM | – | 57 nM | – | –
20 | CCn1ccc(-c2ccc(CN3CCC(CC#N)(n4cc(C(N)=O)c(NC(=O)C5CC5)n4)C(F)C3)cc2)n1 (stereo not drawn) [Example 217, 1-[4-(cyanomethyl)-1-[[4-(1-ethylpyrazol-3-yl)phenyl]methyl]-3-fluoro-4-piperidyl]-3-(cyclopropanecarbonylamino) pyrazole-4-carboxamide] | 0.66 nM | 0.49 nM | – | 56 nM | – | –
21 | N#CC[C@]1(n2cc(C(N)=O)c(NC(=O)C3CC3)n2)CC[C@H](NCc2ccccc2Cl)CC1 [Example 117] | – | 54.7 nM | – | 611 nM | 3.7 nM | –
22 | COC(=O)Nc1nn(C2(CC#N)CCN(Cc3cc(O)c(-c4ccco4)cc3F)CC2F)cc1C(N)=O (stereo not drawn) [Example 238, methyl N-[4-carbamoyl-1-[4-(cyanomethyl)-3-fluoro-1-[[2-fluoro-4-(2-furyl)-5-hydroxy-phenyl]methyl]-4-piperidyl]pyrazol-3-yl]carbamate] | 0.29 nM | 0.35 nM | – | 18 nM | – | –
23 | CS(=O)(=O)Nc1cccc(CN2CCC(CC#N)(n3cc(C(N)=O)c(NC(=O)C4CC4)n3)CC2)c1 [Example 45] | 1.9 nM | 8.5 nM | – | > 1000 nM | – | –
24 | N#CCC1(n2cc(C(N)=O)c(NC(=O)C3CC3)n2)CCN(Cc2ccc(Br)cc2)CC1 [Example 52] | 2.3 nM | 20.9 nM | – | 102 nM | – | –

From patent US11731943B2, “Therapeutic compounds, compositions and methods of use thereof” (priority 2016, dated 2023)
